Experimental data from US20220390432A1, “METHODS OF CHARACTERIZING AND UTILIZING AGENT-CONDENSATE INTERACTIONS” (Whitehead Institute for Biomedical Research, priority 2019, published 2022).

Experiments:
Type in all cases: binding
MED1 = biological target: T1, MED1 (Homo sapiens, UniProt Q15648); test: In vitro droplet assay, small molecule partitioning into MED1 condensates; details: confocal fluorescence; Example 2: 125 mM NaCl, 10% PEG, 10 μM protein; fluorescent or fluorescently labeled drug
T1 construct: MED1—amino acids 600-1581; 6xHis (N); made in house; host or cells: LOBSTR cells (E. coli)
Procedure: Recombinant BFP, GFP, or mCherry fusion proteins were concentrated and desalted to an appropriate protein concentration and 125 mM NaCl using Amicon Ultra centrifugal filters (30K MWCO, Millipore). Recombinant protein was added too. […] The protein solution was immediately loaded onto glass bottom 384 well plate (Cellvis P384-1.5H-N) and imaged with an Andor confocal microscope with a 150× objective. Unless indicated, images presented are of droplets settled on the glass coverslip.
Drug and small molecule concentrations used in the droplet experiments are as follows:
To analyze in vitro droplet experiments, custom Python scripts using the scikit-image package were written to identify droplets and characterize their size, shape and intensity. Droplets were segmented from average images of captured channels on various criteria: (1) an intensity threshold that was three s.d. above the mean of the image; (2) size thresholds (20 pixel minimum droplet size); and (3) a minimum circularity (circularity=4π·areaperimeter2) (circularity=4π·areaperimeter2) of 0.8 (1 being a perfect circle). After segmentation, mean intensity for each droplet was calculated while excluding pixels near the phase interface, and background-corrected by subtracting intensity of dark images of droplet formation buffer only. Droplets identified in the channel of the fluorescent protein from ten independent fields of view were quantified for each experiment. The maximum intensity of signal within the droplets was calculated for each channel, the maximum intensity in the drug channel was termed “maximum drug intensity”. To obtain the intensity of drug or dye alone in the diffuse state (termed “diffuse drug intensity”), the compound was added to droplet formation buffer at same concentration used in the droplet assay. This was then imaged on a confocal fluorescent microscope. The resulting image was processed in FIJI to obtain the fluorescent intensity of the field. To obtain the fluorescent intensity of protein droplets that bleed through in the drug channel (termed “background intensity”) protein droplets were imaged in the fluorescent channel in which the drug fluoresces and processed as above to obtain the average maximum intensity within the droplet across 10 images. The enrichment ratio was obtained by the following formula [(maximum drug intensity)−(background intensity)]/(diffuse drug intensity). The box plots show the distributions of all droplets. Each dot represents an individual droplet.

MED1 condensates [1] = biological target: T2, MED1 condensates (Homo sapiens, UniProt Q15648); test: Determination of partitioning by spectrophotometry and quantitative phase microscopy
T2 construct: MED1—amino acids 600-1581; 6xHis (N); made in house; host or cells: LOBSTR cells (E. coli)
Text: Here, an expression is derived briefly for the partition coefficient of a client molecule into a condensed phase in terms of quantities that are readily measurable experimentally. A sample composed of two coexisting phases is considered, named dilute and condensed, with volume fractions ϕdilute and […]. If a client molecule (e.g. a drug) is also present in the sample at an average concentration of ctotal, then mass conservation requires that
the ratio is estimated ctotal/cdilute from fluorescence spectroscopy measurements, as described in a subsequent section, while ϕcond, it is inferred from the lever rule (M. Rubinstein, R. H. Colby, Polymer Phyics (Oxford University Press, 2003) as follows: denoting the concentration of scaffold protein (e.g. MED1) by s, mass conservation gives stotal=sdiluteϕdilute+scondϕcond, in analogy with Eq. 1. Again using the requirement that the volume fractions of coexisting phases sum to 1, this can be rearranged to yield
where stotal and sdilute are measured spectrophotometrically from optical absorbance at 280 nm, and scond is measured from quantitative phase microscopy, using a coherence-controlled holographic microscope (Q-Phase, Telight (formerly TESCAN), Bmo, CZ) equipped with 40× dry objectives (NA=0.90). […]
where A is the measured absorbance (in Absorbance Units (AU)), I0 is the intensity of the incident light at a given wavelength, I is the transmitted intensity, L the path length through the sample, and c the concentration of the absorbing species. […] The partitioned drug was measured by using spin down assay. […] The supernatant was collected and measured the concentrations of the drug. The partitioned drug was calculated by subtracting from the total known concentration of drug added.
Quantitative phase measurements were performed using a coherence-controlled holographic microscope (Q-Phase, Telight (formerly TESCAN), Brno, CZ) equipped with 40× dry objectives (NA=0.90) as follows. […]
Q-PHASE software was used to construct compensated phase images from acquired holograms, which were subsequently analyzed in MATLAB using custom code. […]

MED1 droplets = biological target: T3, MED1 droplets (Homo sapiens, UniProt Q15648); test: In vitro droplet drug chase out experiment; details: 5 μM cisplatin-TR, 10 μM MED1, unlabeled compound 10, 100 or 500 μM
T3 construct: MED1—amino acids 600-1581; 6xHis (N); made in house; host or cells: LOBSTR cells (E. coli)
Procedure: For chase-out experiments 5 μM labeled cisplatin-TR was added to a MED1 droplets reaction (10 μM MED1, 50 mM Tris-HCl pH 7.5, 10% glycerol, 1 mM DTT, 10% PEG) in order to form MED1 droplets concentrated with Cisplatin-TR. Unlabeled transplatin or unlabeled cisplatin (vehicle, 10 μM, 100 μM, or 500 μM) were added to the droplet mixture and the amount of labeled cisplatin-TR remaining in the droplet is measured after chase out. 100 μM fluorescent FLTX1 was added to a MED1 droplets reaction (10 μM MED1, 50 mM Tris-HCl pH 7.5, 10% glycerol, 1 mM DTT, 10% PEG) in order to form MED1 droplets concentrated with FLTX1.

MED1 condensates [2] = biological target: T2, MED1 condensates; test: FRAP of in vitro droplets with drug; details: 5 μM TR-cisplatin, 10 μM protein, 125 mM NaCl, 10% PEG
Procedure: For FRAP of in vitro droplets, 5 pulses of laser at a 50 us dwell time was applied to the MED1 channel and 20 pulses of laser at a 100 μs dwell time was applied to the Cisplatin channel. Recovery was imaged on an Andor microscope every 1 s for the indicated time periods. Fluorescence intensity was measured using FIJI. Post bleach FRAP recovery data was averaged over 6 replicates for each channel.

T2 sequence (Q15648 600-1581): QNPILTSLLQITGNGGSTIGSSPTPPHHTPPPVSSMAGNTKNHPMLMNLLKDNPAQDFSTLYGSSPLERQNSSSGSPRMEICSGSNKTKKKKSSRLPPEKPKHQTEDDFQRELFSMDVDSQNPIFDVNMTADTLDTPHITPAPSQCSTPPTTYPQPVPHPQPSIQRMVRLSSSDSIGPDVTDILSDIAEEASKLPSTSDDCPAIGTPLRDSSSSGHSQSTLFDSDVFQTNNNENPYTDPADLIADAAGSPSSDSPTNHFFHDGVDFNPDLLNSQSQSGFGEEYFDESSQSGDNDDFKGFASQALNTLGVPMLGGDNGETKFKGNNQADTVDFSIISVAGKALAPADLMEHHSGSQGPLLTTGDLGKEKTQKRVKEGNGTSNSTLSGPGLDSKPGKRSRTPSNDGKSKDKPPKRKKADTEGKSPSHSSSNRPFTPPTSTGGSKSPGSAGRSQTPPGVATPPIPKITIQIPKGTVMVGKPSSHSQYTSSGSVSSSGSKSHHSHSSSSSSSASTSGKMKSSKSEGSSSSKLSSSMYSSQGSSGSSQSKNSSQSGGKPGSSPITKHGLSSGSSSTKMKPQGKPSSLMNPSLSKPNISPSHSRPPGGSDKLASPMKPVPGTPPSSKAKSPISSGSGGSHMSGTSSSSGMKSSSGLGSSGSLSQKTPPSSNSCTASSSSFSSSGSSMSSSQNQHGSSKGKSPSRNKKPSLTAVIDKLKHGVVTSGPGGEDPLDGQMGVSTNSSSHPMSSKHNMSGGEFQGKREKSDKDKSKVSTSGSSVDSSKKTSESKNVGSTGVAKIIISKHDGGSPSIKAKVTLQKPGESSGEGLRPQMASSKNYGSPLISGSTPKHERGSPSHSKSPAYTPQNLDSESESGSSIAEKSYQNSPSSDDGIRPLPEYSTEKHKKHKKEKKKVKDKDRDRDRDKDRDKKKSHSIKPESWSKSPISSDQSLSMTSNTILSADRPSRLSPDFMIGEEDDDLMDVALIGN
T3 sequence (Q15648 600-1581): as above
T1 sequence (Q15648 600-1581): as above

## N.N.[Cl][Pt][Cl] [cisplatin]
MED1
  partitioning / incorporation into MED1 droplets: selectively concentrated in MED1 droplets
MED1 condensates [1]
  partition coefficient in MED1 droplets: up to 600
MED1 condensates [1]; uv spectroscopy of drug remaining in solution plus condensate volume estimate
  partition ratio in MED1 condensates: up to 600 fold
MED1 droplets; listed as unlabeled cisplatin
  chase out of cisplatin-TR from MED1 droplets by unlabeled compound: able to chase out cisplatin-TR
MED1 droplets; listed as unmodified cisplatin
  chase out of cisplatin-TR from MED1 droplets by unlabeled compound: could be chased out of the condensate
MED1 condensates [2]
  mobility in MED1 droplets (FRAP): highly mobile
